Experimental findings from ChEMBL document CHEMBL6177957, “Macrocyclic dihydropyridine analogs as pan-BET BD2-preferred inhibitors” (Eur J Med Chem, 2025) are described below.

The target of test [1] is T1, Bromodomain testis-specific protein (Homo sapiens, UniProt Q58F21). The experiment in a line: Binding affinity to N-terminal hexa histidine-tagged human BRDT BD1 extracted from Escherichia coli BL21 (DE3) cells assessed as inhibition constant incubated for 1 hrs by fluorescence polarization assay. For orientation: In fluorescence polarisation assays a small probe gives low polarisation when free and higher when bound to something large.

The target in test [2] is T1, Bromodomain testis-specific protein. Put plainly: Binding affinity to BRDT BD2 (unknown origin) at W293 residue.
Test [3] shares this target. As to conditions: dose 100.0 µM, time 30.0 min.
For test [4] the target is unchanged. Conditions: dose 100.0 µM, time 30.0 min. This is another data set of the same source.
The target in test [5] is T2, Bromodomain-containing protein 4 (Homo sapiens, UniProt O60885). The experiment in a line: Binding affinity to N-terminal hexa histidine-tagged human BRD4 BD1 extracted from Escherichia coli BL21 (DE3) cells assessed as inhibition constant incubated for 1 hrs by fluorescence polarization assay.
Test [6] has as its target T1, Bromodomain testis-specific protein. The experiment in a line: Binding affinity to BRDT BD1 (unknown origin) assessed as dissociation constant by BROMOscan analysis.
The target in test [7] is T2, Bromodomain-containing protein 4. The experiment in a line: Binding affinity to BRD4 BD2 (unknown origin) assessed as dissociation constant by BROMOscan analysis.
For test [8] the target is unchanged. The experiment in a line: Binding affinity to BRD4 BD1 (unknown origin) assessed as dissociation constant by BROMOscan analysis.
The target of test [9] is T1, Bromodomain testis-specific protein. The experiment in a line: Binding affinity to BRDT BD2 (unknown origin) assessed as dissociation constant by BROMOscan analysis.
The test system of test [10] is MM1.S. The experiment in a line: Downregulation of c-MYC expression in human MM1.S cells measured after 6 hrs by Western blotting analysis. It counts as functional, cell-based. As to conditions: dose 0.1-10 µM. For orientation: In western blotting, separated proteins are transferred to a membrane and probed.

SMILES strings stand for the structures. Activity calls are given as the source filed them. The rule behind the calls is not given here.

In general, Ki refers to a measure of affinity in units of concentration, obtained from inhibition or displacement. Regarding `CCn1c2c(c(=O)[nH]c1=O)C1C(=C(C)N2)C(=O)OCCCCOc2ccccc21` (stereo not drawn), the Ki in test [1] came to 11 µM. For `CCn1c2c(c(=O)[nH]c1=O)C1C(=C(C)N2)C(=O)OCCCCOc2cc(C)ccc21` (stereo not drawn), in test [1], the Ki was found to be 1.7 µM. `CCn1c2c(c(=O)[nH]c1=O)C1C(=C(C)N2)C(=O)OCc2ccccc2OCCOc2cc1ccc2C` (stereo not drawn): the Ki in test [1] is over 3.8 µM. Usually ΔTm stands for the shift of the melting midpoint relative to a reference. As for `CCn1c2c(c(=O)[nH]c1=O)C1C(=C(C)N2)C(=O)OCc2ccccc2OCCCOc2ccccc21` (stereo not drawn), the result in [2] was Active. Besides, the Ki in test [1] amounted to 1.1 µM. The ΔTm in [3] amounted to 13 °C; in test [4], 2.8 °C.

Take `CCn1c2c(c(=O)[nH]c1=O)C1C(=C(C)N2)C(=O)NCc2ccccc2OCCCOc2ccccc21` (stereo not drawn): the figures for the Ki in test [1] and in test [5] were over 3.8 µM and over 3800 nM, respectively. Consider `CCn1c2c(c(=O)[nH]c1=O)C1C(=C(C)N2)C(=O)OCCCOc2cc(C)ccc21` (stereo not drawn), for which the Ki in [1] turned out to be 8.1 µM. The same measure, in the same setting: the figure for `CCn1c2c(c(=O)[nH]c1=O)C1C(=C(C)N2)C(=O)OCc2ccccc2OCCOc2ccccc21` (stereo not drawn) is 5.3 µM. With `CCn1c2c(c(=O)[nH]c1=O)C1C(=C(C)N2)C(=O)OCCCOc2ccccc21` (stereo not drawn), the Ki in test [1] stood at 9.2 µM. For `CCn1c2c(c(=O)[nH]c1=O)C1C(=C(C)N2)C(=O)OCc2ccccc2OCCCOc2cc1ccc2C` (stereo not drawn), in [1], the Ki came to 12 µM. `CCn1c2c(c(=O)[nH]c1=O)C1C(=C(C)N2)C(=O)OCc2cccc(c2)OCCCOc2cc1ccc2C` (stereo not drawn): the results for the Ki in test [1] and in test [5] were over 3.8 µM and over 3800 nM, respectively. On to `CCn1c2c(c(=O)[nH]c1=O)C1C(=C(C)N2)C(=O)OCc2ccccc2OCCOc2cccc1c2` (stereo not drawn), for which, in test [1], the Ki is over 3.8 µM. The Kd is the equilibrium constant for the complex coming apart. As for `CCn1c2c(c(=O)[nH]c1=O)C(c1ccc(C)cc1)C(C(=O)OCc1ccccc1)=C(C)N2` (stereo not drawn), the Kd in test [6] was found to be 770 nM; in test [7], 65 nM; in test [8], 380 nM; in [9], 67 nM. Further, the Ki came out at 0.04 µM in test [1] and 150 nM in [5]. Regarding `Cc1sc2c(c1C)C(c1ccc(Cl)cc1)=N[C@@H](CC(=O)OC(C)(C)C)c1nnc(C)n1-2`, the Activity entry in test [10] is “Dose-dependent-effect”. For `CCn1c2c(c(=O)[nH]c1=O)C1C(=C(C)N2)C(=O)OCc2ccccc2OCCCCOc2ccccc21` (stereo not drawn), the inhibition constant Ki in test [1] came to 1.9 µM. As to `CCn1c2c(c(=O)[nH]c1=O)C1C(=C(C)N2)C(=O)OCc2ccccc2OCCOc2cc(C)ccc21` (stereo not drawn), the Activity result in test [10] is “Dose-dependent-effect”. Also, the ΔTm is 8.9 °C in test [3] and 3.4 °C in test [4]. As for `CCn1c2c(c(=O)[nH]c1=O)C1C(=C(C)N2)C(=O)OCc2ccccc2OCCCOc2cc(C)ccc21` (stereo not drawn), the Ki in [1] worked out at 1.3 µM.
